ChEMBL document CHEMBL1201862, “PubChem BioAssay data set” (2004)
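Results reflect a 48-hour exposure of cells in 96-well plates to compound at five concentrations. GI50: concentration for 50% inhibition of growth.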 The source made the active and inactive calls. No stated cut-off is given here; in the data, active = GI50 up to about 1.1 µM and inactive = higher.

Columns and labels:
Test in all cases: NCI tumour cell line growth inhibition, 48 h
SK-MEL-5 = test system: SK-MEL-5
HT-29 = test system: HT-29
SNB-75 = test system: SNB-75
A498 = test system: A498
K562 = test system: K562
RPMI-8226 = test system: RPMI-8226
SW-620 = test system: SW-620
TK-10 = test system: TK-10
OVCAR-4 = test system: OVCAR-4
UO-31 = test system: UO-31
UACC-62 = test system: UACC-62
EKVX = test system: EKVX
786-0 = test system: 786-0
U-251 = test system: U-251
RXF 393 = test system: RXF 393

Measured: GI50

Cc1ccc(C(=O)N2CCCCC2)cc1/N=N/N(C)C
inactive: SK-MEL-5 > 100 µM | HT-29 > 100 µM | SNB-75 > 100 µM | A498 > 100 µM | K562 > 100 µM | RPMI-8226 > 100 µM | SW-620 > 100 µM | TK-10 > 100 µM | OVCAR-4 > 100 µM | UO-31 > 100 µM | UACC-62 > 100 µM | EKVX > 100 µM | 786-0 > 100 µM

CC(C)c1cccc(C(C)C)c1NC(=O)C(=O)C(C(=O)c1ccccc1-c1ccccc1)C1OC(=O)c2ccccc21 (centres undefined)
inactive: SK-MEL-5 15.5 µM | HT-29 17.9 µM | U-251 12.8 µM | K562 21.4 µM | RPMI-8226 32.6 µM | SW-620 19.9 µM | TK-10 26.5 µM | OVCAR-4 16 µM | UO-31 18.7 µM | UACC-62 17.5 µM | EKVX > 10 µM | 786-0 17.8 µM | RXF 393 12.9 µM

CCN(CC)CCNC(=O)c1cccc2cc3ccccc3nc12
inactive: SK-MEL-5 4.52 µM | HT-29 3.95 µM | U-251 5.01 µM | SNB-75 7.71 µM | A498 6.92 µM | K562 3.72 µM | SW-620 3.49 µM | TK-10 4.79 µM | UO-31 3.45 µM | UACC-62 4.79 µM | EKVX 5.73 µM | 786-0 6.15 µM | RXF 393 3.49 µM

O=C(c1cc2ccccc2o1)N(Cc1ccccc1)c1ccccc1
inactive: SK-MEL-5 16.1 µM | HT-29 22.8 µM | SNB-75 28.3 µM | A498 34.4 µM | K562 15 µM | RPMI-8226 18.2 µM | SW-620 15.8 µM | TK-10 33.6 µM | UO-31 22.9 µM | UACC-62 14.4 µM | EKVX 27 µM | 786-0 20.2 µM | RXF 393 26 µM

OCc1ccc2[n+](c1)CCC1c3ccccc3NC21 (centres undefined)
inactive: SK-MEL-5 86.9 µM | HT-29 > 300 µM | U-251 > 300 µM | K562 > 300 µM | RPMI-8226 > 300 µM | SW-620 > 300 µM | TK-10 > 300 µM | UACC-62 > 300 µM | EKVX > 300 µM | 786-0 > 300 µM | RXF 393 > 300 µM

Cc1c(-c2coc(-c3ccccc3)n2)c(=O)n(-c2ccccc2)n1C
inactive: SK-MEL-5 25.2 µM | HT-29 57.7 µM | U-251 > 100 µM | SNB-75 > 100 µM | A498 > 100 µM | RPMI-8226 36.5 µM | SW-620 37.8 µM | TK-10 > 100 µM | OVCAR-4 > 100 µM | UO-31 84.7 µM | 786-0 > 100 µM
